In one experiment the test system is KB cell. The experiment can be described thus: MTS assay, growth inhibition of KB cells. It is filed as cell-based. The conditions noted are these: Homo sapiens, at 10 μM concentration, incubated for 72 h, read-out: Inhibition rate (%) (growth inhibition rate of MTS assay). As for the experimental part: MTS assay was performed in determining the growth inhibition of cancer cells. MTS ((3-(4,5-dimethylthiazol-2-yl)-5-(3-carboxymethoxyphenyl)-2-(4-sulfophenyl)-2H-tetrazolium)), in the presence of phenazine methosulfate (PMS) and reductases, produces a formazan product that has an absorbance maximum at 490-500 nm. MTS assays (and closely related MTT assay) are commonly used to measure cell viabilities or survivals.
Briefly, KB/Hela, NCI-H460, A375, Colo205, HCT-116, U937, MCF-7, MDA-MB-231, A549, H1975 cells were seeded into 96-well plate at 4000, 4000, 2000, 2000, 2000 cells/well. After 24 h for attachment, test compound was added into each well and incubated for 72 h. A total of 20 μl of MTS reaction reagent containing the MTS (Promega, Madison, Wis.) and PMS in a ratio of 20:1 was added into each well to react with dehydrogenase enzyme in survival cells. After 3 h, the absorbance at 490 nm was monitored using Emax precision microplate reader (Molecular Devices, Sunnyvale, Calif.).
The growth inhibition rate of MTS assay at KB cell of these compounds (at 10 μM concentration) are list in Table 5.

Another experiment deals with biotinylated tubulin. The experiment can be described thus: Colchicine competitive-binding assay. The conditions noted are these: at 10 μM concentration; 3H-colchicine; left column pair of Table 7. On the procedure:
The colchicine competitive-binding assay was done by using the Colchicine Site competitive Assay Kit (Cytoskeleton, Inc.), streptavidin-coated yttrium SPA beads(GE Healthcare, Inc.), and ^3H-colchicine(PerkinElmer, Inc.). Briefly, the binding mixture includes 1 μL^3H-labeled ligand (specific activity […]), and 1 μg biotinylated tubulin and 88 μg SPA beads in 200 μL assay buffer. The test compound and ^3H-labeled ligand were added before tubulin. After incubation at 37° C. for 2 hours, the SPA beads were allowed to settle down for 24 hours at room temperature, and scintillation counting was done on the TopCount Microplate Scintillation Counter.

On to `Cc1ccc(CCC(=O)Nc2ncc(Cc3ccccc3)s2)o1` [Compound 1, N-(5-Benzyl-thiazol-2-yl)-3-(5-methyl-furan-2-yl)-propionamide], for which, in the experiment on KB cell, the inhibition at 10 µM stood at 95.4%. Besides, in the experiment on biotinylated tubulin, the “binding rate (%) (colchicine competitive-binding)” value (shortened to “binding rate (%)”) amounted to 50.2%.

Take `O=C(CCc1cccnc1)Nc1ncc(Cc2ccc(F)cc2)s1` [Compound 4, N-[5-(4-Fluoro-benzyl)-thiazol-2-yl]-3-pyridin-3-yl-propionamide]: the inhibition at 10 µM in the experiment with KB cell is 93.9%. For the same compound, the “binding rate (%)” value in the experiment with biotinylated tubulin is reported as 58.6%. In the case of `COc1ccc(Cc2cnc(NC(=O)CCc3ccc(C)o3)s2)cc1` [Compound 5, N-[5-(4-Methoxy-benzyl)-thiazol-2-yl]-3-(5-methyl-furan-2-yl)-propionamide], in the experiment on KB cell, the inhibition at 10 µM was 95.8%. Moreover, in the experiment with biotinylated tubulin, the “binding rate (%)” value worked out at 63.8%. The matching figures for `O=C(CCc1ccccc1)Nc1ncc(Cc2ccc3c(c2)OCO3)s1` [Compound 6, N-(5-Benzo[1,3]dioxol-5-ylmethyl-thiazol-2-yl)-3-phenyl-propionamide]: 95.1% and 63.6%. In the same order, the values of `COc1ccc(Cc2cnc(NC(=O)CCc3ccc(F)cc3)s2)cc1` [Compound 11, 3-(4-Fluoro-phenyl)-N-[5-(4-methoxy-benzyl)-thiazol-2-yl]-propionamide] are 95.1% and 62.4%. For the compound `COc1ccc(Cc2cnc(NC(=O)CCc3ccc(-c4ccccc4)cc3)s2)cc1` [Compound 51, 3-Biphenyl-4-yl-N-[5-(4-methoxy-benzyl)-thiazol-2-yl]-propionamide], the inhibition at 10 µM with KB cell was found to be 96.1%. The same measure, in the same setting: the value for `COc1ccc(Cc2cnc(NC(=O)C(C)Cc3ccc(F)cc3)s2)cc1` (stereo not shown) [Compound 57, 3-(4-Fluoro-phenyl)-N-[5-(4-methoxy-benzyl)-thiazol-2-yl]-2-methyl-propionamide] was 93.2%; that for `O=C(CCc1ccc(F)cc1)Nc1ncc(Sc2ccccc2)s1` [Compound 65, 3-(4-Fluoro-phenyl)-N-(5-phenylsulfanyl-thiazol-2-yl)-propionamide] was 96.3%. Still for that read-out and setting: the same measure for `O=C(CCc1cccnc1)Nc1ncc(Sc2ccccc2)s1` [Compound 66, N-(5-Phenylsulfanyl-thiazol-2-yl)-3-pyridin-3-yl-propionamide]: 93.3%; for `O=C(CCc1ccccc1)Nc1ncc(Sc2ccccc2)s1` [Compound 67, 3-Phenyl-N-(5-phenylsulfanyl-thiazol-2-yl)-propionamide]: 96.6%.

In the case of `COc1cccc(CCC(=O)Nc2ncc(Sc3ccccc3)s2)c1` [Compound 68, 3-(3-Methoxy-phenyl)-N-(5-phenylsulfanyl-thiazol-2-yl)-propionamide], in the experiment with KB cell, the inhibition at 10 µM came to 94.4%. With `Cc1ccc(CCC(=O)Nc2ncc(Sc3ccccc3)s2)o1` [Compound 72, 3-(5-Methyl-furan-2-yl)-N-(5-phenylsulfanyl-thiazol-2-yl)-propionamide], the inhibition at 10 µM with KB cell worked out at 60%. Same read-out and setting: the value for `O=C(CCc1ccc(-c2ccccc2)cc1)Nc1ncc(Sc2ccccc2)s1` [Compound 73, 3-Biphenyl-4-yl-N-(5-phenylsulfanyl-thiazol-2-yl)-propionamide] was 97%. Consider `COc1ccc(Oc2cnc(NC(=O)CCc3ccc(C)o3)s2)cc1` [Compound 74, N-[5-(4-Methoxy-phenoxy)-thiazol-2-yl]-3-(5-methyl-furan-2-yl)-propionamide], for which the inhibition at 10 µM in the experiment with KB cell was found to be 96.9%. With `O=C(CCc1ccccc1)Nc1ncc(SCc2ccccc2)s1` [Compound 75, N-(5-Benzylsulfanyl-thiazol-2-yl)-3-phenyl-propionamide], the inhibition at 10 µM in the experiment with KB cell turned out to be 82.5%.

Consider `COc1cccc(N2CCN(c3cnc(NC(=O)CCc4ccccc4)s3)CC2)c1` [Compound 76, N-{5-[4-(3-Methoxy-phenyl)-piperazin-1-yl]-thiazol-2-yl}-3-phenyl-propionamide], for which the inhibition at 10 µM in the experiment with KB cell was determined as 95%. `Cc1ccc(CCC(=O)Nc2ccc(-n3ccc4ccccc43)cn2)o1` [Compound 78, N-(5-Indol-1-yl-pyridin-2-yl)-3-(5-methyl-furan-2-yl)-propionamide]: the inhibition at 10 µM with KB cell is 93.9%. `Cc1ccc(CCC(=O)Nc2ccc(Sc3ccccc3)cn2)o1` [Compound 80, 3-(5-Methyl-furan-2-yl)-N-(5-phenylsulfanyl-pyridin-2-yl)-propionamide]: the inhibition at 10 µM with KB cell came out at 79.4%. Still for that read-out and setting: the same measure for `O=C(CCc1cccnc1)Nc1ccc(Sc2ccccc2)cn1` [Compound 82, N-(5-Phenylsulfanyl-pyridin-2-yl)-3-pyridin-3-yl-propionamide]: 95.6%. On to `O=C(CCc1ccccc1)Nc1ccc(SCc2ccccc2)cn1` [Compound 86, N-(5-Benzylsulfanyl-pyridin-2-yl)-3-phenyl-propionamide], for which, in the experiment with KB cell, the inhibition at 10 µM came to 92.8%. Same read-out and setting: the value for `COc1ccc(Cc2nnc(NC(=O)CCc3ccc(C)o3)s2)cc1` [Compound 88, N-[5-(4-Methoxy-benzyl)-[1,3,4]thiadiazol-2-yl]-3-(5-methyl-furan-2-yl)-propionamide] was 93.5%. With `COc1ccc(Cc2nnc(NC(=O)CCc3ccccc3)s2)cc1` [Compound 89, N-[5-(4-Methoxy-benzyl)-[1,3,4]thiadiazol-2-yl]-3-phenyl-propionamide], in the experiment on KB cell, the inhibition at 10 µM was 96.9%. On the same count and under the same terms, the value for `Cn1c(-c2ccccc2)cnc1NC(=O)CCc1ccccc1` [Compound 90, N-(1-Methyl-5-phenyl-1H-imidazol-2-yl)-3-phenyl-propionamide] was 96.6%. As for `Cc1ccc(CCC(=O)Nc2ncc(-c3ccccc3)n2C)o1` [Compound 91, 3-(5-Methyl-furan-2-yl)-N-(1-methyl-5-phenyl-1H-imidazol-2-yl)-propionamide], in the experiment on KB cell, the inhibition at 10 µM was determined as 96%. On the same count and under the same terms, the value for `Cc1ccc(CCC(=O)Nc2ncc(/C=C/c3ccccc3)cn2)o1` [Compound 95, 3-(5-Methyl-furan-2-yl)-N-(5-styryl-pyrimidin-2-yl)-propionamide] was 93.6%; that for `O=C(/C=C/c1ccccc1)Nc1ncc(/C=C/c2ccccc2)cn1` [Compound 96, 3-Phenyl-N-(5-styryl-pyrimidin-2-yl)-acrylamide] was 96.8%.

Take `O=C(CCc1ccccc1)Nc1ncc(/C=C/c2ccccc2)cn1` [Compound 97, 3-Phenyl-N-(5-styryl-pyrimidin-2-yl)-propionamide]: the inhibition at 10 µM in the experiment on KB cell is 52.7%. `COc1ccc(-c2cnc(NC(=O)CCc3ccc(C)o3)nc2)c(OC)c1` [Compound 107, N-[5-(2,4-Dimethoxy-phenyl)-pyrimidin-2-yl]-3-(5-methyl-furan-2-yl)-propionamide]: in the experiment on KB cell, the inhibition at 10 µM was 97%. On to `O=C(Nc1ncc(-c2ccccc2)cn1)OCc1ccccc1` [Compound 108, (5-Phenyl-pyrimidin-2-yl)-carbamic acid benzyl ester], for which the inhibition at 10 µM in the experiment with KB cell was found to be 96.9%. Take `O=C(Nc1ncc(-c2ccc(F)cc2)cn1)OCc1ccccc1` [Compound 109, [5-(4-Fluoro-phenyl)-pyrimidin-2-yl]-carbamic acid benzyl ester]: in the experiment with KB cell, the inhibition at 10 µM amounted to 95.9%. For `O=C(CCc1ccccc1)Nc1ccc(-c2ccccc2)cn1` [Compound 110, 3-Phenyl-N-(5-phenyl-pyridin-2-yl)-propionamide], the inhibition at 10 µM in the experiment on KB cell was determined as 97%. The same measure, in the same setting: the value for `O=C(CCc1ccccc1)Nc1ccc(-c2ccc(F)cc2)cn1` [Compound 113, N-[5-(4-Fluoro-phenyl)-pyridin-2-yl]-3-phenyl-propionamide] was 97.1%. Turning to `Cc1ccc(CCC(=O)Nc2ccc(-c3ccccc3)cn2)s1` [Compound 114, 3-(5-Methyl-thiophen-2-yl)-N-(5-phenyl-pyridin-2-yl)-propionamide], in the experiment on KB cell, the inhibition at 10 µM stood at 93.4%.

Consider `COc1cccc(-c2ccc(NC(=O)CCc3ccc(C)o3)nc2)c1OC` [Compound 115, N-[5-(2,3-Dimethoxy-phenyl)-pyridin-2-yl]-3-(5-methyl-furan-2-yl)-propionamide], for which the inhibition at 10 µM in the experiment on KB cell turned out to be 95.8%. The same measure, in the same setting: the value for `COc1cccc(-c2ccc(NC(=O)CCc3ccccc3)nc2)c1OC` [Compound 116, N-[5-(2,3-Dimethoxy-phenyl)-pyridin-2-yl]-3-phenyl-propionamide] was 94.1%; that for `Cc1cc(-c2ccccc2)cnc1NC(=O)CCc1ccccc1` [Compound 117, N-(3-Methyl-5-phenyl-pyridin-2-yl)-3-phenyl-propionamide] was 94.6%; that for `Cc1cc(-c2ccc(N(C)C)cc2)cnc1NC(=O)C(C)Cc1ccccc1` (stereo not shown) [Compound 121, N-[5-(4-Dimethylamino-phenyl)-3-methyl-pyridin-2-yl]-2-methyl-3-phenyl-propionamide] was 93.5%. With `Cc1ccc(CCC(=O)Nc2cnc(-c3ccccc3)cn2)o1` [Compound 122, 3-(5-Methyl-furan-2-yl)-N-(5-phenyl-pyrazin-2-yl)-propionamide], the inhibition at 10 µM with KB cell was 80.8%.

The record behind these values is patent publication US8883793B2, “Tubulin inhibitors and methods of using the same” (Development Center for Biotechnology, priority 2010, dated 2014).
